{
  "source": "patent US8754192B2",
  "about": "“Compositions comprising homogeneously glycosylated erythropoietin” (Sloan-Kettering Institute for Cancer Research, priority 2006, dated 2014)",
  "key": {"[1]": {"test": "Solubility of the peptide product in MeOH", "type": "physicochemical", "conditions": "fully protected peptide made with pseudoproline/Dmb dipeptides, 'as high as', read-out: solubility (concentration easily achieved)", "source_text": "To improve the peptide synthesis yields and purities, as well as the solubilities of crude products, we attempted various strategies, including the replacement of the synthesized chlorotrityl resin with commercially available NovaSyn® TGT resin (preloaded with Fmoc-amino acids), the use of Ser/Thr-derived oxazolidines (pseudoprolines) and Dmb (2,4-dimethoxybenzyl)dipeptides, 1, 2, 3 and 4 shown below. While 1, 2 and 4 are available in large scale, 3 had to be prepared from a multistep synthesis. These dipeptides could be incorporated into the growing peptide chain in the same manner as normal amino acids activated by HATU. The synthesis outlined below exploited all the beneficial properties of these strategies and produced […] as determined by LC-MS."}, "[2]": {"molecular_target": "T1, EPO-R (Homo sapiens, UniProt P19235)", "T1 sequence (P19235 25-508)": "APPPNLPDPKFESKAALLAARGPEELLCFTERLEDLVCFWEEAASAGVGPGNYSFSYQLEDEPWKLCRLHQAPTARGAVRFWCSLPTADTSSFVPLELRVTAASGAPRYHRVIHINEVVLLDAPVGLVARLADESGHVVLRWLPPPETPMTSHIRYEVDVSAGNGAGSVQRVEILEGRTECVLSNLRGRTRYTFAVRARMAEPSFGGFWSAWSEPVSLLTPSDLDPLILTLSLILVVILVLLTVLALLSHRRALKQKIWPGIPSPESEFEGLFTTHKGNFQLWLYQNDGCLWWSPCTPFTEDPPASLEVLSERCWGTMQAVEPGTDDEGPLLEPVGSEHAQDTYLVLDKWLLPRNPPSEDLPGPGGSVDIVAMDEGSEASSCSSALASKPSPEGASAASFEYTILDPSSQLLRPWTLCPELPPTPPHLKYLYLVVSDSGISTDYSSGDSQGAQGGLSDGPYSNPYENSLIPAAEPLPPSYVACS", "conditions": "in vitro; compared to rHuEPO; cited from earlier work"}, "[3]": {"conditions": "compared to rHuEPO; cited from earlier work"}},
  "data": [
    {"compound": "COc1ccc(CN(C(=O)[C@H](CC(=O)OCc2ccc(NC(CC(C)C)=C3C(=O)CC(C)(C)CC3=O)cc2)NC(=O)[C@@H](NC(=O)[C@H](Cc2cn(C(c3ccccc3)(c3ccccc3)c3ccccc3)cn2)NC(=O)[C@H](CC(C)C)NC(=O)[C@H](CCC(=O)NC(c2ccccc2)(c2ccccc2)c2ccccc2)NC(=O)[C@H](CC(C)C)NC(=O)[C@@H]2CCCN2C(=O)[C@H](CCC(=O)OCc2ccc(NC(CC(C)C)=C3C(=O)CC(C)(C)CC3=O)cc2)NC(=O)[C@H](Cc2cn(C(=O)OC(C)(C)C)c3ccccc23)NC(=O)[C@@H]2CCCN2C(=O)[C@H](CCC(=O)NC(c2ccccc2)(c2ccccc2)c2ccccc2)NC(=O)[C@H](COC(C)(C)C)NC(=O)[C@@H]2COC(C)(C)N2C(=O)[C@H](CC(=O)OC(C)(C)C)NC(=O)[C@@H](NC(=O)[C@H](CC(C)C)NC(=O)[C@H](CC(C)C)NC(=O)[C@H](C)NC(=O)[C@@H](N)CCC(=O)NC(c2ccccc2)(c2ccccc2)c2ccccc2)C(C)C)C(C)C)[C@@H](CCCCNC(CC(C)C)=C2C(=O)CC(C)(C)CC2=O)C(=O)N[C@@H](C)C(=O)N[C@H](C(=O)N2[C@H](C(=O)NCC(=O)N[C@@H](CC(C)C)C(=O)N[C@@H](CCCNC(=N)NS(=O)(=O)c3c(C)c(C)c4c(c3C)CC(C)(C)O4)C(=O)N[C@@H](COC(C)(C)C)C(=O)N[C@@H](CC(C)C)C(=O)N3[C@H](C(=O)N[C@H](C(=O)N[C@@H](CC(C)C)C(=O)N[C@@H](CC(C)C)C(=O)N[C@@H](CCCNC(=N)NS(=O)(=O)c4c(C)c(C)c5c(c4C)CC(C)(C)O5)C(=O)N[C@@H](C)C(=O)N[C@@H](CC(C)C)C(=O)NCC(=O)O)[C@@H](C)OC(C)(C)C)[C@@H](C)OC3(C)C)COC2(C)C)C(C)C)c(OC)c1", "note": "[EPO(78-113)]", "values": [
      {"measurement": "solubility", "setting": "[1]", "value": 4.6, "unit": "mM"}
    ]},
    {"compound": "darbepoetin alfa", "values": [
      {"measurement": "affinity for the EPO-R", "setting": "[2]", "value": "diminished by approximately one-fourth"},
      {"measurement": "activity in vivo", "setting": "[3]", "value": "remained the same"}
    ]}
  ]
}
